The source of these data is ChEMBL document CHEMBL5230081, “Battle against Vancomycin-Resistant Bacteria: Recent Developments in Chemical Strategies” (J Med Chem, 2019).

In assay [1] the test system is Enterococcus faecium. The assay is described as follows: Antimicrobial activity against Vancomycin-resistant (Van A) Enterococcus faecium ATCC 51559 assessed as reduction in microbial growth. The format is functional.
Assay [2] relates to Enterococcus faecium. Put plainly: Antimicrobial activity against Vancomycin-resistant Enterococcus faecium assessed as reduction in microbial growth. It is filed as functional. Particulars: Enterococcus faecium; read-out: MIC.
The test system of a further assay is Enterococcus faecalis. Put plainly: Antimicrobial activity against Vancomycin-sensitive Enterococcus faecalis ATCC 29212 assessed as reduction in microbial growth. It is filed as functional.
Assay [3] can be described thus: Binding affinity to D-Ala-D-Lac.
The test system of assay [4] is Staphylococcus aureus. The assay is described as follows: Antibacterial activity against Vancomycin-intermediate Staphylococcus aureus NRS1 assessed as bacterial growth inhibition. The format is functional.
For assay [5], the system named is Pseudomonas aeruginosa. The assay is described as follows: Antibacterial activity against extensively drug resitant Pseudomonas aeruginosa. It is filed as functional, organism-based.
Assay [6] has as its system Pseudomonas aeruginosa. Put plainly: Antibacterial activity against Pseudomonas aeruginosa ATCC 27853 assessed as bacterial growth inhibition measured after 24 hrs by microbroth dilution method. It is filed as functional.
The test system of assay [7] is Pseudomonas aeruginosa. The assay is described as follows: Synergistic antibacterial activity against multidrug-resistant Pseudomonas aeruginosa ATCC 27853 assessed as reduction in bacterial viability after 12 hrs in presence of 1/2 MIC of vancomycin. It is filed as functional.
Assay [8] deals with Staphylococcus aureus. The assay is described as follows: Antimicrobial activity against vancomycin-resistant Staphylococcus aureus assessed as microbial growth reduction. The format is functional.
Assay [9] deals with Staphylococcus aureus. The assay is described as follows: Antimicrobial activity against Vancomycin-resistant Staphylococcus aureus incubated for 20 hrs by broth dilution method. The format is functional. (Broth dilution looks for growth in wells or tubes with falling amounts of substance.)
Assay [10] concerns Enterococcus faecium. Put plainly: Antimicrobial activity against Vancomycin-resistant (Van M) Enterococcus faecium ATCC 51559 assessed as reduction in microbial growth. It is filed as functional.
Assay [11] has as its system Staphylococcus aureus. Put plainly: Antibacterial activity against Vancomycin-intermediate Staphylococcus aureus Mu50 assessed as bacterial growth inhibition. It is filed as functional.
The test system of assay [12] is Staphylococcus aureus. The assay is described as follows: Antibacterial activity against Vancomycin-intermediate Staphylococcus aureus 3797 assessed as inhibition in bacterial growth. It is filed as functional.
A short description of assay [13]: Binding affinity to D-Ala-D-Ala.
Assay [14] is described as follows: Binding affinity to D-Ala-D-Ala assessed as dissociation constant.
Assay [15] can be described thus: Binding affinity to D-Ala-D-Lac assessed as dissociation constant.
For a further assay, the system named is Enterobacter cloacae. The assay is described as follows: Antibacterial activity against Enterobacter cloacae NDM-1 assessed as reduction in bacterial growth by broth microdilution method. The format is functional.
The next assay deals with Acinetobacter baumannii. The assay is described as follows: Antibacterial activity against Acinetobacter baumannii R4942 assessed as reduction in bacterial growth by broth microdilution method. It is filed as functional.
Assay [16] deals with Staphylococcus aureus. Put plainly: Antibacterial activity against Vancomycin-resistant Staphylococcus aureus assessed as bacterial growth inhibition measured after 48 hrs by microbroth dilution method. The format is functional.
For assay [17], the system named is Staphylococcus aureus. The assay is described as follows: Antibacterial activity against Vancomycin-intermediate Staphylococcus aureus assessed as bacterial growth inhibition measured after 24 hrs by microbroth dilution method. The format is functional.
[18] abbreviates: Enterococcus faecium, ATCC 51559, read-out: MIC.

In brackets after ≈: the same amount, converted by molar mass. Where a SMILES comes first, the peptide text is derived from it. [ ]: non-standard residue; d: D form. ξ: configuration not given here. ξW = NC(Cc1c[nH]c2ccccc12)C(=O)O

With `CCCCCCCC[n+]1ccc(CN[C@@]2(C)C[C@H](O[C@H]3[C@H](Oc4c5cc6cc4Oc4ccc(cc4Cl)[C@@H](O)[C@@H](NC(=O)[C@@H](CC(C)C)NC)C(=O)N[C@@H](CC(N)=O)C(=O)N[C@H]6C(=O)N[C@H]4C(=O)N[C@H](C(=O)N[C@H](C(=O)NC(=O)[C@H](O)[C@@H](O)[C@H](O[C@@H]6O[C@H](CO)[C@@H](O)[C@H](O)[C@H]6O)[C@H](O)CO)c6cc(O)cc(O)c6-c6cc4ccc6O)[C@H](O)c4ccc(c(Cl)c4)O5)O[C@H](CO)[C@@H](O)[C@@H]3O)O[C@@H](C)[C@H]2O)cc1`, the MIC (as a rule, the least concentration at which growth counts as inhibited) in the assay with Enterococcus faecium [1] (setting [18]) was determined as 0.09 µM; in the assay with Enterococcus faecium [2] it was 0.09 µM; in the assay with Enterococcus faecalis, 0.1 µM; with Staphylococcus aureus [4], 0.1 µM. The Ka in assay [3] was 5.7 10^4/M.
In the assay with Pseudomonas aeruginosa [5], POLYMYXIN B yielded an MIC of 2 µg/mL.
As for `CC(=O)N[C@@H]1[C@H](Oc2c3cc4cc2Oc2ccc(cc2Cl)[C@@H](O[C@@H]2O[C@@H](CO)[C@@H](O)[C@H](O)[C@@H]2NC(C)=O)[C@@H]2NC(=O)[C@H](NC(=O)[C@@H]4NC(=O)[C@H]4NC(=O)[C@@H](Cc5ccc(c(Cl)c5)O3)NC(=O)[C@H](N)c3ccc(O)c(c3)Oc3cc(O)cc4c3)c3ccc(O)c(c3)-c3c(O[C@H]4O[C@H](CO)[C@@H](O)[C@@H](O)[C@@H]4O)cc(O)cc3[C@@H](C(=O)O)NC2=O)O[C@@H](CO)[C@@H](O)[C@@H]1O`, in the assay on Pseudomonas aeruginosa [6], the MIC stood at 256 µg/mL (≈ 145 µM). Further, the “fractional inhibitory concentration index (FICI)” value in the assay with Pseudomonas aeruginosa [7] was under 0.5.
In the case of `CCCCCCCCCCC(=O)N[C@@H](CCCCN)C(=O)N[C@@H](CCCCN)C(=O)NC(CCCCNC(=O)[C@H]1NC(=O)[C@H]2NC(=O)[C@H](NC(=O)[C@@H]3NC(=O)[C@H](CC(N)=O)NC(=O)[C@H](NC(=O)[C@@H](CC(C)C)NC)[C@H](O)c4ccc(c(Cl)c4)Oc4cc3cc(c4O[C@@H]3O[C@H](CO)[C@@H](O)[C@H](O)[C@H]3O[C@H]3C[C@](C)(N)[C@H](O)[C@H](C)O3)Oc3ccc(cc3Cl)[C@H]2O)c2ccc(O)c(c2)-c2c(O)cc(O)cc21)C(=O)O` (stereo not given in full), the minimal inhibitory concentration (MIC) was determined as 6 µg/mL in the assay on Enterococcus faecium [1] (setting [18]), 0.05 µg/mL (≈ 0.025 µM) in the assay with Staphylococcus aureus [8], 1 µg/mL against Staphylococcus aureus [9] and 0.5 µg/mL with Staphylococcus aureus [4].
For `CN[C@H](CC(C)C)C(=O)N[C@H]1C(=O)N[C@@H](CC(N)=O)C(=O)N[C@H]2C(=O)N[C@H]3C(=O)N[C@H](C(=O)N[C@H](C(=O)O)c4cc(O)c(CNCCO[C@@H]5O[C@H](CO)[C@H](O)[C@H](O)[C@H]5O)c(O)c4-c4cc3ccc4O)[C@H](O)c3ccc(c(Cl)c3)Oc3cc2cc(c3O[C@@H]2O[C@H](CO)[C@@H](O)[C@H](O)[C@H]2O[C@H]2C[C@](C)(NCc3ccc(-c4ccc(C(F)(F)F)cc4)cc3)[C@H](O)[C@H](C)O2)Oc2ccc(cc2Cl)[C@H]1O`, the MIC in the assay with Enterococcus faecium [1] was at most 0.06 µg/mL; in the assay on Enterococcus faecium [1] (setting [18]), 1 µg/mL; in the assay on Enterococcus faecium [10], 2 µg/mL; in the assay on Staphylococcus aureus [11] it was 0.25 µg/mL (≈ 0.13 µM).
For `CCCCCCCCN(CCCNC(=O)[C@H]1NC(=O)[C@H]2NC(=O)[C@H](NC(=O)[C@@H]3NC(=O)[C@H](CC(N)=O)NC(=O)[C@H](NC(=O)[C@@H](CC(C)C)NC)[C@H](O)c4ccc(c(Cl)c4)Oc4cc3cc(c4O)Oc3ccc(cc3Cl)[C@H]2O)c2ccc(O)c(c2)-c2c(O)cc(O)cc21)CCCNC(=O)[C@H]1NC(=O)[C@H]2NC(=O)[C@H](NC(=O)[C@@H]3NC(=O)[C@H](CC(N)=O)NC(=O)[C@H](NC(=O)[C@@H](CC(C)C)NC)[C@H](O)c4ccc(c(Cl)c4)Oc4cc3cc(c4O)Oc3ccc(cc3Cl)[C@H]2O)c2ccc(O)c(c2)-c2c(O)cc(O)cc21`, the minimum inhibitory concentration (MIC) came to 2.5 µM in the assay on Enterococcus faecium [1] (setting [18]) and 0.6 µM in the assay with Staphylococcus aureus [12]. The Ka in assay [3] was 5.7 10^3/M; in assay [13], 1 10^5/M.
Consider `CN[C@H](CC(C)C)C(=O)N[C@H]1C(=O)N[C@@H](CC(N)=O)C(=O)N[C@H]2C(=O)N[C@H]3C(=O)N[C@H](C(=O)N[C@H](C(=O)NCCSSCCNC(=O)[C@H]4NC(=O)[C@H]5NC(=O)[C@H](NC(=O)[C@@H]6NC(=O)[C@H](CC(N)=O)NC(=O)[C@H](NC(=O)[C@@H](CC(C)C)NC)[C@H](O)c7ccc(c(Cl)c7)Oc7cc6cc(c7O[C@@H]6O[C@H](CO)[C@@H](O)[C@H](O)[C@H]6O[C@H]6C[C@](C)(N)[C@H](O)[C@H](C)O6)Oc6ccc(cc6Cl)[C@H]5O)c5ccc(O)c(c5)-c5c(O)cc(O)cc54)c4cc(O)cc(O)c4-c4cc3ccc4O)[C@H](O)c3ccc(c(Cl)c3)Oc3cc2cc(c3O[C@@H]2O[C@H](CO)[C@@H](O)[C@H](O)[C@H]2O[C@H]2C[C@](C)(N)[C@H](O)[C@H](C)O2)Oc2ccc(cc2Cl)[C@H]1O`, for which the MIC with Enterococcus faecium [1] (setting [18]) and in the assay with Staphylococcus aureus [9] was 11 µM each time. Besides, the Kd (commonly the constant that tells how readily two partners part at equilibrium) in assay [14] is 1.9 µM; in assay [15] it was 440 µM.
With `CCCCCCCCCCC(=O)N[C@@H](CCCCN)C(=O)N[C@@H](CCCCN)C(=O)NC(CCCCNC(=O)[C@H]1NC(=O)[C@H]2NC(=O)[C@H](NC(=O)[C@@H]3NC(=O)[C@H](CC(N)=O)NC(=O)[C@H](NC(=O)[C@@H](CC(C)C)NC)[C@H](O)c4ccc(c(Cl)c4)Oc4cc3cc(c4O[C@@H]3O[C@H](CO)[C@@H](O)[C@H](O)[C@H]3O[C@H]3C[C@](C)(N)[C@H](O)[C@H](C)O3)Oc3ccc(cc3Cl)[C@H]2O)c2ccc(O)c(c2)-c2c(O)cc(O)cc21)C(N)=O` (stereo not given in full), the MIC in the assay with Enterococcus faecium [1] (setting [18]) stood at 2 µg/mL; with Staphylococcus aureus [12], 0.06 µg/mL; with Staphylococcus aureus [4] it was 0.03 µg/mL.
Consider `CCCCCCCC[N+](C)(C)CCCNC(=O)[C@H]1NC(=O)[C@H]2NC(=O)[C@H](NC(=O)[C@@H]3NC(=O)[C@H](CC(N)=O)NC(=O)[C@H](NC(=O)[C@@H](CC(C)C)NC)[C@H](O)c4ccc(c(Cl)c4)Oc4cc3cc(c4O[C@@H]3O[C@H](CO)[C@@H](O)[C@H](O)[C@H]3O[C@H]3C[C@](C)(N)[C@H](O)[C@H](C)O3)Oc3ccc(cc3Cl)[C@H]2O)c2ccc(O)c(c2)-c2c(O)cc(O)cc21`, for which the MIC in the assay with Enterococcus faecium [1] (setting [18]) was 12 µM; with Enterobacter cloacae it was over 100 µM; with Staphylococcus aureus [9], 0.3 µM; in the assay with Staphylococcus aureus [4] it was 0.4 µM; in the assay with Acinetobacter baumannii, 7 µM.
As for H-IRIKIRIK-OH, the MIC in the assay with Staphylococcus aureus [16] and in the assay with Staphylococcus aureus [17] was 8 µg/mL throughout.
Regarding `CN[C@H](CC(C)C)C(=O)N[C@H]1C(=O)N[C@@H](CC(N)=O)C(=O)N[C@H]2C(=O)N[C@H]3C(=O)N[C@H](C(=O)N[C@H](C(=O)O)c4cc(O)c(CN[C@H]5C(O)O[C@H](CO)[C@H](O)[C@@H]5O)c(O)c4-c4cc3ccc4O)[C@H](O)c3ccc(c(Cl)c3)Oc3cc2cc(c3O[C@@H]2O[C@H](CO)[C@@H](O)[C@H](O)[C@H]2O[C@H]2C[C@](C)(NCc3ccc(-c4ccc(Cl)cc4)cc3)[C@H](O)[C@H](C)O2)Oc2ccc(cc2Cl)[C@H]1O` (stereo not given in full), the MIC in the assay with Enterococcus faecium [1] came out at 0.25 µg/mL; in the assay on Enterococcus faecium [1] (setting [18]), 2 µg/mL; in the assay on Enterococcus faecium [10] it was 4 µg/mL; in the assay with Staphylococcus aureus [11] it was 0.12 µg/mL (≈ 0.0652 µM).
Regarding `N=C(N)NCCC[C@H](NC(=O)[C@H](CCCNC(=N)N)NC(=O)[C@H](Cc1c[nH]c2ccccc12)NC(=O)[C@H](Cc1c[nH]c2ccccc12)NC(=O)[C@H](CCCNC(=N)N)NC(=O)[C@H](CCCNC(=N)N)NC(=O)[C@H](Cc1c[nH]c2ccccc12)NC(=O)C(Cc1c[nH]c2ccccc12)NC(=O)[C@H](CCCNC(=N)N)NC(=O)[C@H](Cc1c[nH]c2ccccc12)NC(=O)[C@H](Cc1c[nH]c2ccccc12)NC(=O)[C@@H](N)CCCNC(=N)N)C(=O)O` (stereo not given in full) (H-RWWR[ξW]WRRWWRR-OH), the MIC in the assay on Staphylococcus aureus [16] is 1 µg/mL (≈ 0.483 µM); with Staphylococcus aureus [17] it was 4 µg/mL (≈ 1.93 µM).
